For experiment [1], the system named is LNCap (human prostate cancer) cells. Nature of the experiment: MTT cytotoxicity assay, LNCap. The experiment is classed as cell-based. The note with it: 72 h, 3 days, read-out: Means of IC50. As for the experimental part:
(§1) Pomiferin is dissolved in DMSO at a final concentration of 100 mmol/L and stored at −20° C. Cytotoxicity is assessed using the 3-(4,5-dimethylthiazol-2-yl)-2,5-diphenyltetrazolium bromide assay. 4000-8000 HeLa (human cervical cancer), MCF-7 (human breast cancer), HepG2 and Hep3B (human liver cancer), H1299 and A549 (human lung cancer), LNCap (human prostate cancer) and LLC-1 (mouse Lewis lung carcinoma) cells are seeded on 96-well plates per well. After overnight pre-incubation, the cells are exposed to different concentrations of pomiferin ([…]) for 3 days. Subsequently, 10 μL of MTT reagents is added to each well and incubated at 37° C. for 4 hours followed by the addition of 100 μL solubilization buffer (10% SDS in 0.01 mol/L HCl) and overnight incubation. Absorbance at 585 nm is determined from each well the next day. The percentage of cell viability is calculated using the following formula: Cell viability (%)=Cells number treated/Cells number DMSO control×100. Data are obtained from three independent experiments.
For orientation: Tetrazolium assays rely on reduction of a dye to a coloured formazan, in cell work by metabolically active cells.

Experiment [2] deals with caspase-3 deficient (caspase 3KO) mouse embryonic fibroblasts. Nature of the experiment: MTT cytotoxicity assay, caspase 3KO MEFs. The class given is cell-based. The conditions noted are these: Fibroblast, 72 h, 3 days, read-out: Means of IC50. As for the experimental part:
(§2) The test compound of pomiferin is dissolved in DMSO at a final concentration of 100 mmol/L and stored at −20° C. Cytotoxicity is assessed using the 3-(4,5-dimethylthiazol-2-yl)-2,5-diphenyltetrazolium bromide assay as previously described^29. 2500 of caspase wild-type (caspase WT), caspase-3 deficient (caspase 3KO), caspase-7 deficient (caspase 7KO), caspase-3/-7 deficient (caspase 3/7 DKO), caspase-8 deficient (caspase 8KO), Bax-Bak wild-type (Bak-Bak WT) and Bax-Bak double knock out (Bak-Bak DKO) mouse embryonic fibroblasts (MEFs) are seeded on 96-well plates per well. After overnight pre-incubation, the cells are exposed to different concentrations of pomiferin (namely 100, 50, 25, 12.5, 6.25, 3.125, 1.5625, 0.78, 0.39, 0.195, 0.079, 0.039 μmol/L) for 3 days. Subsequently, 10 μL of MTT reagents is added to each well and incubated at 37° C. for 4 hours, followed by the addition of 100 μL solubilization buffer (10% SDS in 0.01 mol/L HCl) and overnight incubation. Absorbance at 585 nm is determined from each well on the following day. The percentage of cell viability is calculated using the following formula: Cell viability (%)=Cells numbertreated/Cells numberDMSO control×100. Data is obtained from three independent experiments.

Experiment [3] has as its system caspase-7 deficient (caspase 7KO) mouse embryonic fibroblasts. As to the kind of experiment: MTT cytotoxicity assay, caspase 7KO MEFs. The experiment is classed as cell-based. The note with it: Fibroblast, 72 h, 3 days, read-out: Means of IC50. As for the experimental part: as §2
In experiment [4] the test system is caspase-3/-7 deficient (caspase 3/7 DKO) mouse embryonic fibroblasts. Nature of the experiment: MTT cytotoxicity assay, caspase 3/7 DKO MEFs. The class given is cell-based. The conditions noted are these: Fibroblast, 72 h, 3 days, read-out: Means of IC50. As for the experimental part: as §2
Experiment [5] has as its system caspase-8 deficient (caspase 8KO) mouse embryonic fibroblasts. As to the kind of experiment: MTT cytotoxicity assay, caspase 8KO MEFs. The conditions noted are these: Fibroblast, 72 h, 3 days, read-out: Means of IC50. The class given is cell-based. As for the experimental part: as §2
Experiment [6] deals with Bax-Bak wild-type mouse embryonic fibroblasts. As to the kind of experiment: MTT cytotoxicity assay, Bax-Bak WT MEFs. The class given is cell-based. The conditions noted are these: Fibroblast, 72 h, 3 days, read-out: Means of IC50. As for the experimental part:
as §2

For experiment [7], the system named is Bax-Bak double knock out (DKO) mouse embryonic fibroblasts. Nature of the experiment: MTT cytotoxicity assay, Bax-Bak DKO MEFs. The experiment is classed as cell-based. The note with it: Fibroblast, 72 h, 3 days, read-out: Means of IC50. As for the experimental part:
as §2

Experiment [8] relates to panel of human and mouse cancer cells. As to the kind of experiment: MTT cytotoxicity assay, panel of human and mouse cancer cells. The experiment is classed as cell-based. The note with it: 72 hours, read-out: mean IC50 value range over the panel. As for the experimental part:
as §1

Experiment [9] relates to Atg7 deficient (Atg7−/−) mouse embryonic fibroblasts. As to the kind of experiment: Annexin V/PI flow cytometry cell death, Atg7−/− MEFs. The note with it: 2 μM, 24 h, FIG. 6B. The class given is cell-based. As for the experimental part:
Cell viability is measured using an annexin V staining kit (BD Biosciences, San Jose, Calif., USA). Briefly, Atg7 wild-type (Atg7+/+ or Atg7-wt) and Atg7 deficient (Atg7−/− or Atg7-ko) mouse embryonic fibroblasts (MEFs) are treated with the 2 μM pomiferin for 24 h. Cells are then harvested and analysed by multiparametric flow cytometry using FITC-Annexin V and Propidium iodide staining (BD Biosciences, San Jose, Calif., USA) according to the manufacturer's instructions. Flow cytometry is then carried out using a FACSCalibur flow cytometer (BD Biosciences, San Jose, Calif., USA). Data acquisition and analysis is performed with CellQuest (BD Biosciences, San Jose, Calif., USA). Data are obtained from three independent experiments.

The subject of the next experiment is HeLa cells. Nature of the experiment: Cytosolic calcium detection by flow cytometry (Fluo-3). The experiment is classed as cell-based, human. The conditions noted are these: 10 μM, 10 min to 4 h, FIG. 4A. As for the experimental part:
Changes in intracellular free calcium are measured by a fluorescent dye, Fluo-3, as described previously^21. Briefly, HeLa cells are washed twice with MEM medium after pomiferin treatment (10 μM) for various times (10 min, 0.5 h, 1 h, 2 h, 4 h). Then cell suspensions are incubated with 5 μM Fluo-3 at 37° C. for 30 min. Then the cells are washed twice with HBSS. After re-suspended cell samples are subjected to FACS analysis, at least 10,000 events are analyzed.
(In general: Flow cytometry measures light scatter and fluorescence of single cells or particles in a stream.)

Experiment [10] deals with caspase WT, 3KO, 7KO, 3/7 DKO, 8KO, Bax-Bak WT and Bax-Bak DKO MEFs. As to the kind of experiment: Endogenous autophagic LC3 puncta in apoptosis-resistant MEFs. The experiment is classed as cell-based, mouse. The conditions noted are these: wild-type and apoptosis-resistant MEFs; FIG. 7. As for the experimental part:
Endogenous LC3 puncta formation is quantified as previously described^2. In brief, caspase wild-type (caspase WT), caspase-3 deficient (caspase 3KO), caspase-7 deficient (caspase 7KO), caspase-3/-7 deficient (caspase 3/7 DKO), caspase-8 deficient (caspase 8KO), Bax-Bak wild-type (Bak-Bak WT) and Bax-Bak double knock out (Bak-Bak DKO) MEFs are grown on coverslips in a 6-well plate are treated with […] of pomiferin. Both wild-type and deficient MEFs are then fixed in 4% paraformaldehyde for 20 minutes at room temperature and then rinsed with PBS. After washing with PBS, the cells are then incubated with anti-LC3 (1:200) in TBST (100 mM Tris HCl, pH 7.5, 150 mM NaCl, 0.05% Tween 20 and 5% BSA) overnight at 4. After washing with PBS, the cells are incubated with anti-mouse secondary antibody (TRITC) 1:200 in TBST containing 5% BSA at 37 for 1 hrs in the dark. The coverslips are then mounted with FluorSave™ mounting media (Calbiochem, San Diego, Calif., USA) for fluorescence imaging and localization of LC3 autophagosomes are captured under the API Delta Vision Live-cell Imaging System (Applied Precision Inc., GE Healthcare Company, Washington, USA).

Structures are written as SMILES.

As usually defined, the IC50 is the midpoint of a concentration-inhibition curve.

Take `CC(C)=CCc1c2c(c3occ(-c4ccc(O)c(O)c4)c(=O)c3c1O)C=CC(C)(C)O2` [pomiferin]: the IC50 in experiment [1] worked out at 16.2 µM; in experiment [2] it was 2.13 µM; in experiment [3], 3.95 µM; in [4], 2.21 µM; in experiment [5], 4.98 µM; in experiment [6], 0.44 µM. Further, the IC50 in [7] was 0.986 µM; in [8], 3.82 to 20.3 µM. The “cell death (in words)” value in [9] is recorded as “not in autophagy deficient cells”. For the same compound, the cytosolic calcium level entry in the experiment with HeLa cells is “increase the cytosolic calcium level in a time dependent manner”. For the same compound, in [10], the “autophagy induction (endogenous LC3 puncta)” value is “able to induce autophagy in all these wild-type and apoptosis-resistant cells”.

For the origin of these results see US20170014375A1, “PHARMACEUTICAL COMPOSITION COMPRISING EFFECTIVE DOSE OF POMIFERIN FOR TREATING CANCERS” (Macau University of Science and Technology, priority 2015, published 2017).
